Measured values taken from patent US9067934B2, “Bicyclic pyridinones” (Pfizer Inc., priority 2011, dated 2015).
pIC50: −log10 of the molar value. Where a name gives a salt, the structure may show the parent alone.

Tested on: production of amyloid beta protein Aβ(1-42) (γ-secretase) in human WT-APP overexpressing CHO cells
Test: Cell-Based γ-Secretase Assay with ELISA Readout
Conditions: human WT-APP overexpressing CHO cells, ~24 hours at 37° C., Aβ(1-42) ELISA; footnotes: a = geometric mean of >15 determinations, b = single determination, c = geometric mean of 7-15 determinations; read-out: Aβ 42B IC50 (Geometric Mean of 2-6 Determinations)
Procedure: Cell-Based γ-Secretase Assay with ELISA Readout
The ability of compounds to modulate production of amyloid beta protein Aβ(1-42) was determined using human WT-APP overexpressing CHO cells. Cells were plated at 22,000 cells/100 μL well in 96 well tissue culture treated, clear plates (Falcon) in DMEM/F12 based medium and incubated for 24 hours at 37° C. Compounds for testing were diluted in 100% DMSO to achieve an eleven points, half log, dose response for IC50 determinations. Compounds were added in fresh medium to achieve 1% final DMSO. Appropriate vehicle or inhibitor controls were added into control wells individually to obtain minimum or maximum inhibition values, respectively, for the assay signal window before the plates were incubated for ˜24 hours at 37° C. This procedure produces conditioned media in each well which is tested for Aβ(1-42) levels in the ELISA detection step described next. The remaining cell cultures in each well are also tested for cell toxicity as described below.
Coating of ELISA assay plates was initiated by addition of 50 μL/well of an in-house Aβ(1-42) specific antibody at (3 μg/mL) in 0.1 M NaHCO3 (pH 9.0) into black 384-well Maxisorp® plates (Nunc) and incubated overnight at 4° C. The capture antibody was then aspirated from the ELISA assay plates and plates were washed 4×100 μL with Wash Buffer (Dulbecco's PBS, 0.05% Tween 20). 90 μL/well of Blocking Buffer (Dulbecco's PBS, 1.0% BSA (Sigma A7030)) was then added to plates. Ambient temperature incubation was allowed to proceed for a minimum of two hours. Blocking buffer was then removed and 20 μL/well Assay Buffer (Dulbecco's PBS, 1.0% BSA (Sigma A7030), 0.05% Tween 20) was then added. At this point, 40 μL (in duplicate) of experimental conditioned media (described above) were transferred into wells of the blocked ELISA plates containing the capture antibody, followed by overnight incubation at 4° C. Cell toxicity was also measured in the corresponding remaining cells after removal of the conditioned media for the Aβ(1-42) assay by a colorimetric cell proliferation assay (CellTiter 96® AQueous One Solution Cell Proliferation Assay, Promega) according to the manufacturer's instructions.
After overnight incubation of the ELISA assay plates at 4° C., unbound Aβ peptides were removed via (4×100 μL) washes with Wash Buffer. Europium (Eu) labeled (custom labeled, Perkin Elmer) Aβ(1-16) 6e10 Monoclonal Antibody (Covance #SIG-39320) was added, (50 μL/well Eu-6e10 @ 1:10,000, 20 uM EDTA) in Assay Buffer. Incubation at ambient temperature for a minimum of 2 hours was followed by (4×100 μL) washes with Wash Buffer, before 30 μL/well of Delfia Enhancement Solution (Perkin Elmer) was added. Following an one hour ambient temperature incubation, the plates were read on an EnVision plate reader (Perkin Elmer) using standard DELFIA TRF settings. Data analysis including inhibitory IC50 determination was performed using nonlinear regression fit analysis (in-house software) and the appropriate plate mean values for the maximum and minimum inhibition controls.

SMILES	pIC50
Cc1cn(-c2ccc3n(c2=O)CCN(CCOc2ccccc2-c2cc4ccccc4o2)C3=O)cn1 [Example 92, 2-{2-[2-(1-benzofuran-2-yl)phenoxy]ethyl}-7-(4-methyl-1H-imidazol-1-yl)-3,4-dihydro-2H-pyrido[1,2-a]pyrazine-1,6-dione, formate salt]	8.31
CCC(COc1ccc(Cl)cc1C(F)(F)F)N1CCn2c(ccc(-n3cnc(C)c3)c2=O)C1=O (centres unmarked) [Example 100, 2-{1-[4-chloro-2-(trifluoromethyl)phenoxy]butan-2-yl}-7-(4-methyl-1H-imidazol-1-yl)-3,4-dihydro-2H-pyrido[1,2-a]pyrazine-1,6-dione, trifluoroacetate salt]	6.87
Cc1cn(-c2ccc3n(c2=O)CCN(CCOc2ccccc2-c2cc(C(F)(F)F)[nH]n2)C3=O)cn1 [Example 49, 7-(4-methyl-1H-imidazol-1-yl)-2-(2-{2-[5-(trifluoromethyl)-1H-pyrazol-3-yl]phenoxy}ethyl)-3,4-dihydro-2H-pyrido[1,2-a]pyrazine-1,6-dione]	6.75
Cc1cn(-c2ccc3n(c2=O)CCN(CCOc2ccc(Cl)c4ccccc24)C3=O)cn1 [Example 6, 2-{2-[(4-chloro-1-naphthyl)oxy]ethyl}-7-(4-methyl-1H-imidazol-1-yl)-3,4-dihydro-2H-pyrido[1,2-a]pyrazine-1,6-dione]	7.44
Cc1cn(-c2ccc3n(c2=O)CCN([C@@H](C)COc2ccc(F)cc2C(F)(F)F)C3=O)cn1 [Example 57, 2-{(1S)-2-[4-fluoro-2-(trifluoromethyl)phenoxy]-1-methylethyl}-7-(4-methyl-1H-imidazol-1-yl)-3,4-dihydro-2H-pyrido[1,2-a]pyrazine-1,6-dione]	6.95
Cc1cn(-c2ccc3n(c2=O)CCN(CCCOc2ccccc2C(C)(C)C)C3=O)cn1 [Example 32, 2-[3-(2-tert-butylphenoxy)propyl]-7-(4-methyl-1H-imidazol-1-yl)-3,4-dihydro-2H-pyrido[1,2-a]pyrazine-1,6-dione, trifluoroacetate salt]	6.84
Cc1cn(-c2ccc3n(c2=O)CCN(CCOc2ccccc2-c2cc(C(F)(F)F)on2)C3=O)cn1 [Example 39, 7-(4-methyl-1H-imidazol-1-yl)-2-(2-{2-[5-(trifluoromethyl)isoxazol-3-yl]phenoxy}ethyl)-3,4-dihydro-2H-pyrido[1,2-a]pyrazine-1,6-dione, trifluoroacetate salt]	6.28
Cc1cn(-c2ccc3n(c2=O)CCN(CCOc2ccccc2-c2cc(C(F)F)no2)C3=O)cn1 [Example 58, 2-(2-{2-[3-(difluoromethyl)isoxazol-5-yl]phenoxy}ethyl)-7-(4-methyl-1H-imidazol-1-yl)-3,4-dihydro-2H-pyrido[1,2-a]pyrazine-1,6-dione, trifluoroacetate salt]	7.14
Cc1cn(-c2ccc3n(c2=O)CCN(CCOc2ccc(F)cc2-c2csc(C(F)(F)F)n2)C3=O)cn1 [Example 52, 2-(2-{4-fluoro-2-[2-(trifluoromethyl)-1,3-thiazol-4-yl]phenoxy}ethyl)-7-(4-methyl-1H-imidazol-1-yl)-3,4-dihydro-2H-pyrido[1,2-a]pyrazine-1,6-dione]	7.63
Cc1cn(-c2ccc3n(c2=O)CCN(CCOc2ccc(F)c(C(F)(F)F)c2Cl)C3=O)cn1 [Example 35, 2-{2-[2-chloro-4-fluoro-3-(trifluoromethyl)phenoxy]ethyl}-7-(4-methyl-1H-imidazol-1-yl)-3,4-dihydro-2H-pyrido[1,2-a]pyrazine-1,6-dione, trifluoroacetate salt]	6.88
Cc1cn(-c2ccc3n(c2=O)CCN(CCOc2cc(Cl)cc(Cl)c2Cl)C3=O)cn1 [Example 10, 7-(4-methyl-1H-imidazol-1-yl)-2-[2-(2,3,5-trichlorophenoxy)ethyl]-3,4-dihydro-2H-pyrido[1,2-a]pyrazine-1,6-dione]	6.90
Cc1cn(-c2ccc3n(c2=O)CCN(CCOc2ncc(Cl)c4ccc(F)cc24)C3=O)cn1 [Example 99, 2-{2-[(4-chloro-7-fluoroisoquinolin-1-yl)oxy]ethyl}-7-(4-methyl-1H-imidazol-1-yl)-3,4-dihydro-2H-pyrido[1,2-a]pyrazine-1,6-dione, trifluoroacetate salt]	7.60
Cc1cn(-c2ccc3n(c2=O)CCN(CCOc2ncc(F)cc2-c2csc(C(F)(F)F)n2)C3=O)cn1 [Example 75, 2-[2-({5-fluoro-3-[2-(trifluoromethyl)-1,3-thiazol-4-yl]pyridin-2-yl}oxy)ethyl]-7-(4-methyl-1H-imidazol-1-yl)-3,4-dihydro-2H-pyrido[1,2-a]pyrazine-1,6-dione]	7.21
Cc1cn(-c2ccc3n(c2=O)CCN(CCOc2ccccc2C24CC(C2)C4)C3=O)cn1 [Example 106, 2-{2-[2-(bicyclo[1.1.1]pent-1-yl)phenoxy]ethyl}-7-(4-methyl-1H-imidazol-1-yl)-3,4-dihydro-2H-pyrido[1,2-a]pyrazine-1,6-dione]	7.56
Cc1cn(-c2ccc3n(c2=O)CCN(CCOc2ccc(Cl)c(Cl)c2Cl)C3=O)cn1 [Example 27, 7-(4-methyl-1H-imidazol-1-yl)-2-[2-(2,3,4-trichlorophenoxy)ethyl]-3,4-dihydro-2H-pyrido[1,2-a]pyrazine-1,6-dione]	6.99
Cc1cn(-c2ccc3n(c2=O)CCN(CCOc2ccc(F)cc2C2CC(F)(F)C2)C3=O)cn1 [Example 76, 2-{2-[2-(3,3-difluorocyclobutyl)-4-fluorophenoxy]ethyl}-7-(4-methyl-1H-imidazol-1-yl)-3,4-dihydro-2H-pyrido[1,2-a]pyrazine-1,6-dione]	7.23
Cc1cn(-c2ccc3n(c2=O)CCN(CCOc2cc(Cl)c(Cl)cc2Cl)C3=O)cn1 [Example 30, 7-(4-methyl-1H-imidazol-1-yl)-2-[2-(2,4,5-trichlorophenoxy)ethyl]-3,4-dihydro-2H-pyrido[1,2-a]pyrazine-1,6-dione]	6.88
Cc1cn(-c2ccc3n(c2=O)CCN(CCOc2cc(C(F)(F)F)nn2-c2ccc(F)cc2C)C3=O)cn1 [Example 56, 2-(2-{[1-(4-fluoro-2-methylphenyl)-3-(trifluoromethyl)-1H-pyrazol-5-yl]oxy}ethyl)-7-(4-methyl-1H-imidazol-1-yl)-3,4-dihydro-2H-pyrido[1,2-a]pyrazine-1,6-dione]	6.40
Cc1cn(-c2ccc3n(c2=O)CCN(CCOc2ccccc2-c2nc(C(F)(F)F)ns2)C3=O)cn1 [Example 104, 7-(4-methyl-1H-imidazol-1-yl)-2-(2-{2-[3-(trifluoromethyl)-1,2,4-thiadiazol-5-yl]phenoxy}ethyl)-3,4-dihydro-2H-pyrido[1,2-a]pyrazine-1,6-dione]	8.14
Cc1cn(-c2ccc3n(c2=O)CCN(CC(C)Oc2ccc(C(F)(F)F)cc2)C3=O)cn1 (centres unmarked) [Example 5, 7-(4-methyl-1H-imidazol-1-yl)-2-{2-[4-(trifluoromethyl)phenoxy]propyl}-3,4-dihydro-2H-pyrido[1,2-a]pyrazine-1,6-dione]	6.00
Cc1cn(-c2ccc3n(c2=O)CCN(CCOc2ccc(Cl)cc2C(F)(F)F)C3=O)cn1 [Example 22, 2-{2-[4-chloro-2-(trifluoromethyl)phenoxy]ethyl}-7-(4-methyl-1H-imidazol-1-yl)-3,4-dihydro-2H-pyrido[1,2-a]pyrazine-1,6-dione]	6.99
Cc1cn(-c2ccc3n(c2=O)CCN(CCOc2cccc4c2oc2ccccc24)C3=O)cn1 [Example 26, 2-[2-(dibenzo[b,d]furan-4-yloxy)ethyl]-7-(4-methyl-1H-imidazol-1-yl)-3,4-dihydro-2H-pyrido[1,2-a]pyrazine-1,6-dione]	7.02
Cc1cn(-c2ccc3n(c2=O)CCN(CCOc2ccccc2-c2ccccc2)C3=O)cn1 [Example 34, 2-[2-(biphenyl-2-yloxy)ethyl]-7-(4-methyl-1H-imidazol-1-yl)-3,4-dihydro-2H-pyrido[1,2-a]pyrazine-1,6-dione, trifluoroacetate salt]	6.58
